Source: US12076409B2, “Polymer-drug conjugates for combination anticancer therapy” (priority 2015, dated 2024)

What was measured:
[1] = test system: human breast cancer cell line BT-474; assay: MTT cell viability and drug combination studies in BT-474 cells; type: cell-based; details: BT-474, 72 hours, read-out: D50 (concentration of drug required to inhibit 50% cell growth)
Method: BT-474 or bEnd.3 cells were seeded in a 96-well cell culture plate at a density of 10,000 cells per well in a total volume of 100 μL/well and allowed to adhere overnight. Media was then replaced with fresh media containing drug(s). Drugs were first dissolved in DMSO, and then further diluted in full cell culture medium so as not to expose cells to more than 0.5 vol % DMSO. BT-474 cells were incubated with drug solutions for 72 hours, while bEnd.3 cells were exposed to drug solutions for 48 hours. […] To assess cell viability, the media was replaced with 0.5 mg/mL MTT in media and allowed to incubate for 4 hours. […] Formazan dye intensity was determined by absorbance measured at 570 nm in a Tecan Infinite M200 Pro plate reader (Männedorf, Switzerland). The fraction of inhibited cell growth was calculated by subtracting live cells in experimental wells from untreated control cells and normalizing against control cells. D50 refers to the concentration of drug required to inhibit 50% cell growth. Experimental cytotoxicity data were fitted to the median-effect model developed by Chou and Talalay to obtain in vitro cytotoxicity curves for each drug.

BT-474 cells [2] = assay: Annexin V/Sytox Green apoptosis assay (flow cytometry); type: cell-based, human; details: BT-474, 72 hours, single drug
Method: Apoptosis assessment was made based on Annexin V and Sytox Green counterstaining. Studies followed the Life Technologies Apoptosis Assay protocol, with few modifications tailored to BT-474 cells. Briefly, cells were seeded at a concentration of 100×10^4 cells per 25 cm^2 cell culture flask in a total volume of 10 mL media, and allowed to adhere overnight. Media was then decanted and replaced with fresh media containing drug(s). Drugs were first dissolved in DMSO and further diluted in media such that cells were not exposed to more than 0.2 vol % DMSO. Cells were incubated in the presence of drug(s) for 72 hours. After drug exposure, cells were harvested at a concentration of 1×10^6 cells/mL in Annexin V binding buffer, and 200 μL of each sample were incubated with 5 μL of Annexin V-647 and 1 μL of 1 μM Sytox Green. After 15 minutes of dye incubation, cells were diluted 5× in ice cold Annexin V Binding Buffer, and immediately analyzed via flow cytometry in a Becton Dickinson FACSAria cell sorter (Franklin Lakes, NJ, USA). To quantify Annexin V-647 and Sytox Green fluorescence, a 633 nm laser with 660 PMT and a 488 nm laser with 530 PMT, respectively, were utilized. […]
Scatter plots obtained from flow cytometry of AnnexinV/Sytox Green counterstained cells were analyzed. These plots were utilized to quantify early apoptotic and late apoptotic/necrotic populations in FIG. 2. […]

BT-474 cells [3] = assay: Internalization studies by confocal laser scanning microscopy; type: cell-based, human; details: BT-474, 24 hrs
Method: To assess the effect of HA-conjugation on the internalization of CPT or DOX in BT-474 cells, confocal laser scanning microscopy was utilized. Cells were seeded at a density of 80,000 cells per 300 μL media in an 8-well chambered borosilicate coverglass (Nunc Lab-Tek), and were allowed to adhere overnight. Cells were exposed to the same drug concentration, the free drug D50, of either the free drug solution or the HA-conjugate form for 24 hrs at 37° C. and 5% CO2. Post-drug incubation, cells were washed twice with warmed PBS (pH 7.4), followed by staining with nuclear dyes at 37° C., 5% CO2. In the case of DOX-exposed cells, Hoechst nuclear dye was utilized at a concentration of 25 μg/mL for 30 minutes. For CPT-exposed cells, to avoid overlap fluorescence between CPT and nuclear marker, DRAQ5 was used to stain nuclei at a concentration of 5 μM in media for 60 minutes. Cells were washed twice more in warm PBS and finally suspended in media immediately prior to imaging. All cells were imaged live with an Olympus Fluoview 1000 spectral confocal equipped with a 60× silicon oil objective and a 37° C. temperature-controlled imaging chamber. […] Z-stacks of 10 μm were captured and subsequently analyzed with ImageJ 1.47h software (NIH). Each z-stack was collapsed into an averaged image, and fluorescence intensity was reported as the raw integrated density divided by number of cells. […]

small cell lung cancer = details: patients with small cell lung cancer; cited from earlier work

Compound	IC50 [1]	percentage of apoptotic cells (BT-474 cells [2])	intracellular distribution (BT-474 cells [3])	overall response rate (small cell lung cancer)
CC[C@@]1(O)C(=O)OCc2c1cc1n(c2=O)Cc2cc3ccccc3nc2-1 [CPT, Camptothecin]	100 µM	low percentages of apoptotic cells		
COc1cccc2c1C(=O)c1c(O)c3c(c(O)c1C2=O)C[C@@](O)(C(=O)CO)C[C@@H]3O[C@H]1C[C@H](N)[C@H](O)[C@H](C)O1 [DOX, Doxorubicin]			more diffuse and co-localized with cell nuclei	> 20%
